Assay results: patent US20120265121A1, “PHTHALOCYANINE-BASED ANTIFUNGAL AGENTS” (CASE WESTERN RESERVE UNIVERSITY, priority 2011, published 2012)

Experiments:
[1] = system: C. albicans (strain SC-5134); experiment: FITC-labeled Annexin V staining of protoplasts (phosphatidylserine externalization); format: cell-based, Candida albicans; details: positive controls: 20 mM H2O2 or 60 μM acetic acid, 4 hr
Experimental: Cells were then incubated for 4 hr before staining with FITC-labeled Annexin V. FIG. 4(a) provides confocal images of FITC-labeling of cells that had been treated with H2O2 or Pc 4-PDT. Scale bar, 20 μm. FIG. 4(b) provides a bar graph showing the results. For each experiment over 50-100 protoplasts cells were counted per sample. […] Cells were counted by eye using a Zeiss AxiovertTM S100 inverted epifluorescence microscope. Values represent the mean±S.E. from at least three independent experiments. […] Apoptosis Analyses: (A) FITC-labeled Annexin V staining-To assess the externalization of phosphatidylserine, protoplasts of C. albicans were stained with FITC-labeled Annexin V using the Annexin V-FLUOS staining kit (Roche, Germany) with minor modifications. Madeo et al., J Cell Biol 139:729-734 (1997); Park et al., Biochem Biophys Res Commun 394:170-172 (2010). Briefly, control and treated cells were washed three times with 1× PBS before incubating at 37° C. for 30 min in a protoplasting solution (50 mM KH2PO4, 5 mM EDTA and 50 mM DTT). Then cells were digested at 37° C. for 45 min in an enzyme solution (50 mM K2HPO4, 40 mM 2-mercaptoethanol, 3 μg/mL Chitinase, 1.8 μg/mL […], 0.15 mg/mL Zymolyase and 2.4 M sorbitol). 1× PBS was added to each sample and incubated for 30 min at room temperature in all experiments. Protoplasts were then incubated with 100 μL of Annexin V-FLUOS labeling solution for 15 min at 25° C. FITC-labeled Annexin V fluorescence was detected by both widefield (Leica DMI6000B microscope; Leica Microsystems, Inc., Bannockburn, Ill., USA) and confocal fluorescence microscopy.

[2] = system: C. albicans (strain SC-5134); experiment: Chromatin condensation by confocal microscopy; format: cell-based, Candida albicans; details: highest dose of Pc 4-PDT or peroxide, 24 hr after treatment
Experimental: Confocal Microscopy: To investigate the uptake and localization of Pc 4, cells in standard growth medium plus 10% Fetal Bovine Serum (FBS) were loaded with 0.2 μM Pc 4 and incubated for 16 to 18 hr. Thirty minutes prior to imaging Pc 4, 50 nM MitoTracker Red (Invitrogen, Carlsbad, Calif., USA) or 50 μg/mL AlexaFluor 488-conjugated Concanavalin (Con) A (Invitrogen, Carlsbad, Calif., USA) and/or 10 μg/mL Hoechst 33342 (Invitrogen, Carlsbad, Calif., USA) was loaded onto cells. Five to 10 μL of stained cells were placed on a slide with a glass coverslip and all images acquired using an UltraVIEW VoX spinning disk confocal system (PerkinElmer, Waltham, Mass., USA), which was mounted on a Leica DMI6000B microscope (Leica Microsystems, Inc., Bannockburn, Ill., USA) equipped with a HCX PL APO 100×/1.4 oil immersion objective. Confocal images of Pc 4 fluorescence, MitoTracker Red, ConA (or FITC-labeled Annexin V) and Hoechst 33342 were collected using solid-state diode lasers, with 640-nm, 561-nm, 488-nm and 405-nm excitation light, respectively, and with appropriate emission filters.

Compound: OO [H2O2, hydrogen peroxide, reference compound]
- Annexin V positive cells [1]: ~27%
- chromatin condensation [2]: detected

Compound: CC(=O)O [acetic acid]
- Annexin V positive cells [1]: ~27%
